Our source for the Selectivity ratio values is ChEMBL document CHEMBL4742400, “Protein kinase mkk4 inhibitors for promoting liver regeneration or reducing or preventing hepatocyte death” (2019).

For assay [1], the species on record is Homo sapiens. The assay is described as follows: Selectivity index, ratio of inhibition of full length human MKK7 (M1 to R419 residues) expressed in mammalian expression system assessed as residual percent of control binding at 100 nM relative to control to inhibition of partial length human MKK4 (S84 to D399 residues) expressed in mammalian expression system assessed as residual percent of control binding at 100 nM relative to control.

The species named for assay [2] is Homo sapiens. The assay is described as follows: Selectivity index, ratio of inhibition of full length human JNK1 (M1 to Q384 residues) expressed in mammalian expression system assessed as residual percent of control binding at 100 nM relative to control to inhibition of partial length human MKK4 (S84 to D399 residues) expressed in mammalian expression system assessed as residual percent of control binding at 100 nM relative to control.

For assay [3], the species on record is Homo sapiens. Put plainly: Selectivity index, ratio of inhibition of B-raf (unknown origin) to inhibition of partial length human MKK4 (S84 to D399 residues) expressed in mammalian expression system assessed as residual percent of control binding at 100 nM relative to control.

Turning to `CCCS(=O)(=O)Nc1ccc(F)c(C(=O)c2n[nH]c3ncc(-c4ccc(OC)cc4)cc23)c1F`, the Selectivity ratio in the assay listed under Homo sapiens [1] is 10; in the assay filed under Homo sapiens [2] it was 10; in the assay listed under Homo sapiens [3], less than 3.
For the compound `CCCS(=O)(=O)Nc1ccc(F)c(C(=O)c2n[nH]c3ncc(-c4ccc(Cl)cc4Cl)cc23)c1F`, the Selectivity ratio in the assay filed under Homo sapiens [1], in the assay filed under Homo sapiens [2] and in the assay listed under Homo sapiens [3] was 3 in each case.
Turning to `CCCS(=O)(=O)Nc1ccc(F)c(C(=O)c2n[nH]c3ncc(-c4ccc(S(=O)(=O)NCC(O)CO)cc4)cc23)c1F` (stereo not given), the Selectivity ratio in the assay listed under Homo sapiens [1] was greater than 30; in the assay filed under Homo sapiens [2] it was greater than 30; in the assay filed under Homo sapiens [3] it was less than 3.
On to `CCCS(=O)(=O)Nc1ccc(F)c(NC(=O)c2n[nH]c3ncc(-c4ccc(Cl)cc4)cc23)c1F`, for which the Selectivity ratio in the assay listed under Homo sapiens [1], in the assay filed under Homo sapiens [2] and in the assay filed under Homo sapiens [3] was less than 3 each time.
Take `CCCS(=O)(=O)Nc1ccc(F)c([S+]([O-])c2n[nH]c3ncc(-c4ccc(Cl)cc4)cc23)c1F` (stereo not given): the Selectivity ratio in the assay listed under Homo sapiens [1], in the assay listed under Homo sapiens [2] and in the assay listed under Homo sapiens [3] was less than 3 throughout.
